Experimental data published in BindingDB's records for doi:10.7270/Q24M92ZV (Nmmlsc, 2009).
pEC50: −log10 of the molar value.

Molecular target: Ras-related C3 botulinum toxin substrate 1 (Mus musculus, UniProt P63001)
Test: activated mutant Rac1 GTP binding inhibitors, SAR follow-up, biochemical, additional analogs, multiplex bead flow cytometry (AID 2039)

SMILES | pEC50
O=C1N=c2c(Br)cccc2=C1c1[nH]c2ccccc2c1NO [7-bromanyl-3-[3-(oxidanylamino)-1H-indol-2-yl]indol-2-one] | 4.52
O=C1Nc2ccc(Br)cc2C1=C1Nc2ccccc2C1=O | 4.91
O=C1Nc2c(F)cccc2C1=C1Nc2ccccc2C1=O | 4.52
O=C1NC(=S)N/C1=C1\C(=O)Nc2ccccc21 [(3Z)-3-(5-oxo-2-sulfanylideneimidazolidin-4-ylidene)-1H-indol-2-one] | 5.16
O=C1Nc2c(Br)cccc2C1=C1Nc2ccccc2C1=O | 4.56
O=C1N=c2ccccc2=C1c1[nH]c2ccccc2c1NO [3-[3-(hydroxyamino)-1H-indol-2-yl]-2-indolone] | 4.52
O=C1Nc2c(Cl)cccc2C1=C1Nc2ccccc2C1=O | 4.52
O=C1N=c2ccc(Br)cc2=C1c1[nH]c2ccccc2c1NO [5-bromanyl-3-[3-(oxidanylamino)-1H-indol-2-yl]indol-2-one] | 4.49
O=C1Nc2ccccc2/C1=C1/Nc2ccccc2C1=O [2-[(3Z)-2-oxo-2,3-dihydro-1H-indol-3-ylidene]-2,3-dihydro-1H-indol-3-one] | 4.52
O=C1N=c2c(F)cccc2=C1c1[nH]c2ccccc2c1NO [7-fluoro-3-[3-(hydroxyamino)-1H-indol-2-yl]-2-indolone] | 4.50
O=C1N=c2c(Cl)cccc2=C1c1[nH]c2ccccc2c1NO [7-chloro-3-[3-(hydroxyamino)-1H-indol-2-yl]-2-indolone] | 4.52
O=C1NC(=O)/C(=C2/C(=O)Nc3ccccc32)N1 | 4.94
